Results as given in ChEMBL document CHEMBL1201862, “PubChem BioAssay data set” (2004).
Activity calls are given as the source filed them.

How the values were obtained:
[1] = reduction of Shn3 3'UTR-driven luciferase in osteoblasts – cell-based, Clone20 osteoblasts, firefly luciferase, cherry-picked, dose response (AID 624132); type: functional;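 further: firefly luciferase luminescence from reporter carrying the Shn3 3'UTR in osteoblasts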
[2] = non-specific 3'UTR reporter inhibition in Clone20-Shn3RL – cell-based, Renilla luciferase, cherry-picked, counter-screen for Shn3 inhibitor project, dose response (AID 624133); type: functional
INS1 = experiment: INS-1E survival protection against cytokine death – cell-based, luminescence, retest, dose response (AID 449756); type: functional; conditions: Rattus norvegicus;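 further: cell death triggered by IL-1 beta plus TNF-alpha plus IFN-gamma mixture; protective hits raise ATP signal compared with cytokine alone wells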
[3] = loss of viability in HepG2 cells – cell-based, CellTiter-Glo, cherry-picked, cytotoxicity control for Shn3 inhibitor project, dose response (AID 624134); type: functional
[4] = target: FAD-linked sulfhydryl oxidase ALR (Homo sapiens, UniProt P55789); experiment: ALR-catalysed DTT oxidation blockers – biochemical, H2O2 detection, luminescence, cherry-pick, dose response (AID 493248)
[5] = target: T1, Corticotropin-releasing factor receptor 2/Corticotropin-releasing factor-binding protein (Homo sapiens, UniProt P24387+Q13324); experiment: activators of CRF receptor 2 with binding protein – uHTS hits, confirmation (AID 602473); type: functional; conditions: read-out: EC50_Mean
T1 sequence (Q13324 whole entry): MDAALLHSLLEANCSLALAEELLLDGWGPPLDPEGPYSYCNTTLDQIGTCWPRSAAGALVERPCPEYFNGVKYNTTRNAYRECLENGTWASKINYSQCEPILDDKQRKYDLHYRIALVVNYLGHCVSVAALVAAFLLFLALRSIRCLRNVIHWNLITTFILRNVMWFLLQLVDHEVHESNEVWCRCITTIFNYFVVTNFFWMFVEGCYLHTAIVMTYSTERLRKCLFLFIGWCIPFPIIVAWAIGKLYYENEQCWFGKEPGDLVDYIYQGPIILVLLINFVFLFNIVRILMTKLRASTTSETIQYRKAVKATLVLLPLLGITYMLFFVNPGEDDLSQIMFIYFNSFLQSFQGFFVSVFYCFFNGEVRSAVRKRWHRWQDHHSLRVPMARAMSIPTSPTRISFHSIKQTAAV
T1 sequence (P24387 whole entry): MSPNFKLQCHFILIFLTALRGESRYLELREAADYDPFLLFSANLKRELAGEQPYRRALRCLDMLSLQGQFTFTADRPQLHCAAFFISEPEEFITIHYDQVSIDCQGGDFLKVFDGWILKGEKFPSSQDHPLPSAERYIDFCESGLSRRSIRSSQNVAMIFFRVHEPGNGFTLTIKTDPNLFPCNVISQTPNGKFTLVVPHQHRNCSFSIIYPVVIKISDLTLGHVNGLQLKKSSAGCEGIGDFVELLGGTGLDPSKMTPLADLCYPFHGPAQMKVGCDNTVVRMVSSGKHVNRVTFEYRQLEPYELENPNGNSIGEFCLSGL

[6] = target: T1, Corticotropin-releasing factor receptor 2/Corticotropin-releasing factor-binding protein; experiment: Dose Response confirmation of uHTS hits for small molecule antagonists of the CRF-binding protein and CRF-R2 receptor complex.; type: functional; conditions: read-out: IC50_Mean
[7] = NIH-3T3 fibroblast cytotoxicity, dose response, cytotoxicity control, cell-based, fluorescence, Alamar Blue, secondary assay (AID 2327); type: functional;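 further: NIH-3T3 mouse fibroblasts cultured with fluconazole at 8 µg/mL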
[8] = target: T2, Rac GTPase-activating protein 1 (Homo sapiens, UniProt Q9H0H5); experiment: blockers of MgcRacGAP-driven Rac1 GTP hydrolysis – biochemical, ADP Hunter fluorescence, primary and confirmatory, confirmation (AID 624330); type: functional
T2 sequence (Q9H0H5 whole entry): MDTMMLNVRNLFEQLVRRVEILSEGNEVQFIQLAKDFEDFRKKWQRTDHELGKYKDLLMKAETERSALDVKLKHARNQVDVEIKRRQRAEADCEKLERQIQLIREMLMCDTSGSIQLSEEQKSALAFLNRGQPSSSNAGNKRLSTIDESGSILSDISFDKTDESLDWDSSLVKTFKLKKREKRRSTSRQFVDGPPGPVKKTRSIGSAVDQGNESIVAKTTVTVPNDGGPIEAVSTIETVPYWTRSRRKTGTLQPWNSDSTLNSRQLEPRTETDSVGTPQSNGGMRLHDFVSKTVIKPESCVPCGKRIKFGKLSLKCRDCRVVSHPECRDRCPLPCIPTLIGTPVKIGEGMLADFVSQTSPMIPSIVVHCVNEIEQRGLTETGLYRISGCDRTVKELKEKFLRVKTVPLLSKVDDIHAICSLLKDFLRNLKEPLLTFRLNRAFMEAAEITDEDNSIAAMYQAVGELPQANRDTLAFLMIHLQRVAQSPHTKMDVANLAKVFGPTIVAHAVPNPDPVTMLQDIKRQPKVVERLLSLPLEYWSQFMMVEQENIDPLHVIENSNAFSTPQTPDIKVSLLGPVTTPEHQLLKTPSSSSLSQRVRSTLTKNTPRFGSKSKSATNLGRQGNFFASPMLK

[9] = target: T3, Heat shock factor protein 1 (Mus musculus, UniProt P38532); experiment: enhancement of HSF1-driven luciferase signal – cell-based, NIH3T3, luminescence, dose retest, confirmation (AID 435004); type: functional;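 further: stress induced by proteasome inhibitor MG132 added 30 min after compound; luciferase reporter driven by HSF1 response element in NIH3T3 cells; actives raise luminescence as potentiators of the MG132 stress response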
T3 sequence (P38532 whole entry): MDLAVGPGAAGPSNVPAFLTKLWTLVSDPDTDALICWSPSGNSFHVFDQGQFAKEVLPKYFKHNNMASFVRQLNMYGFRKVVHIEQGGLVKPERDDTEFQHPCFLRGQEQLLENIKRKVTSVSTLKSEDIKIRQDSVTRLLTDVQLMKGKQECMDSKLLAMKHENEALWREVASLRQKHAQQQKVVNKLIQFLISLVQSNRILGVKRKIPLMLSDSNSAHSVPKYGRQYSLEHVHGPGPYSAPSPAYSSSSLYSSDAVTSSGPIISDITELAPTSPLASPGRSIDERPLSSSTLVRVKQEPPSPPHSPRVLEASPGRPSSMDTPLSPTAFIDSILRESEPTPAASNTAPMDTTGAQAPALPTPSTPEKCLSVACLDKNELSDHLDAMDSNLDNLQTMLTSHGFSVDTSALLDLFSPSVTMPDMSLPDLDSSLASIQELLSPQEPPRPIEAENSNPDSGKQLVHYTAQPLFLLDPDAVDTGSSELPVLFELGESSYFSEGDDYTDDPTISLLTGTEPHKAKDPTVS

Cytochrome P450 2D6 = Cytochrome P450 2D6 (Homo sapiens, UniProt P10635);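 further: CYP2D6 member of a cytochrome P450 panel assay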
[10] = NIH3T3 cell viability loss – ATP luminescence, mouse fibroblasts, counter-screen, dose response (AID 2010); type: functional, cell-based;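 further: cells exposed to compound for about 90 hours before reading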
[11] = Trypanosoma cruzi growth suppression in host cells – NIH3T3 host cells, beta-gal luminescence, confirmation (AID 2044); type: functional, cell-based;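 further: intracellular parasites grown in NIH/3T3 mouse fibroblasts as host cells; luminescent beta-galactosidase reporter signal from transgenic T. cruzi replicating inside host cells; inhibitors lower the luminescence signal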
[12] = Luminescence Cell-Based Dose Response HTS to Identify Activators of Luciferase Translation or Activity in H4 […] Cells. [Related pubchem assays: 1829 (Project Summary), 1814 (Primary HTS)]; type: functional
H4 = experiment: Luminescence Cell-Based Dose Response HTS to Identify Activators of 5'UTR Stem-Loop Driven Prion Protein mRNA Translation in H4 Neuroglioblastoma Cells. [Related pubchem assays: 1829 (Project Summary), 1814 (Primary HTS)]; type: functional; conditions: Homo sapiens
Vero = experiment: cells; type: functional; conditions: Chlorocebus sabaeus
[13] = system: Streptococcus sp. 'group A'; experiment: Streptococcus pyogenes SK(-)GAS viability under kanamycin – luminescence, BacTiterGlo, confirmation, counter-screen for streptokinase expression inhibitor project, dose response (AID 1900); type: functional, organism-based
[14] = target: T4, Ubiquitin-conjugating enzyme E2 N (Homo sapiens, UniProt P61088); type: functional;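 further: Dose-response confirmation in a TR-FRET assay detecting UBC13-driven polyubiquitin chain formation, inhibition measured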
T4 sequence (P61088 whole entry): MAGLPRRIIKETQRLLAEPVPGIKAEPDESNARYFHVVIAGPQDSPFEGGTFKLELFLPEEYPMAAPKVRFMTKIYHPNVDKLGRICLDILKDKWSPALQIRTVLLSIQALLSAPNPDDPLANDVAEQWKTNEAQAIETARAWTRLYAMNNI

[15] = viability of PTEN-deleted HCT116 cells – cell-based, HCT116 PTEN knockout, dose response (AID 1047); type: functional;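 further: HCT116 colon tumor cells with PTEN knocked out; cells exposed to compound for 60 hours before readout; potency for loss of cell viability measured by luminescence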
[16] = Luminescence Cell-Based Dose Retest to Confirm Inhibitors of Cancer Stem Cells. [Related pubchem assays (depositor defined):AID2717, AID2721]; type: functional; conditions: Homo sapiens
[17] = viability of HCT116 lacking mutant beta-catenin – cell-based, human colon tumor, dose response (AID 1045); type: functional;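 further: HCT116 colon tumor cells with beta catenin knocked out; cells exposed to compound for 60 hours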
Streptokinase A = target: T5, Streptokinase A (Streptococcus pyogenes serotype M1, UniProt P10520); experiment: viability-normalized secreted streptokinase activity reduction – plasminogen activation absorbance, OD405, dose response (AID 1914); type: functional, Streptococcus pyogenes M1 GAS;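 further: secreted streptokinase activity via plasminogen activation per viability signal from cell pellet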
T5 sequence (P10520 whole entry): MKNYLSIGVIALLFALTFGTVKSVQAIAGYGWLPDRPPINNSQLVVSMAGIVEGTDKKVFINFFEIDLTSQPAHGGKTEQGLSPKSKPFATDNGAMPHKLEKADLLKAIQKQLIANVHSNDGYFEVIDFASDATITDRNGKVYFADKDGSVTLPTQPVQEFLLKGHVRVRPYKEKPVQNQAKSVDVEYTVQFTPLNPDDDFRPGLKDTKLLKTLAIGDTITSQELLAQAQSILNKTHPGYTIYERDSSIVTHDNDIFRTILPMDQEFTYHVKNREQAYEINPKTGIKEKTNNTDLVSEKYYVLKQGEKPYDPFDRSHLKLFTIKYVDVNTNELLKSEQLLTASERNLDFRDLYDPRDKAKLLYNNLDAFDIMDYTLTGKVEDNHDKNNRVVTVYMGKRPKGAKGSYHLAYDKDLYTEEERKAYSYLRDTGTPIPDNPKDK

Streptococcus = experiment: GAS UMAA2166 growth inhibition – luminescence, BacTiterGlo, counter-screen for streptokinase expression inhibitor project, dose response (AID 1915); type: functional, organism-based;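 further: potency for reduction of bacterial viability or growth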
cells = type: functional
[18] = THP-1 cell cytotoxicity, dose response, cytotoxicity control for non-replicating M. tuberculosis project (AID 489025); type: functional

Sequence of FAD-linked sulfhydryl oxidase ALR (P55789 whole entry): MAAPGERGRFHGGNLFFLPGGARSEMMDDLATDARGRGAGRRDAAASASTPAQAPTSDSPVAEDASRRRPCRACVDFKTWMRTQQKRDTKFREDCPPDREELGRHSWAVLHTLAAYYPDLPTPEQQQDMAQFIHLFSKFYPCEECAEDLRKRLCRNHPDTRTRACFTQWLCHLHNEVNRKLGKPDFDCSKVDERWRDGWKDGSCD
Sequence of Cytochrome P450 2D6 (P10635 whole entry): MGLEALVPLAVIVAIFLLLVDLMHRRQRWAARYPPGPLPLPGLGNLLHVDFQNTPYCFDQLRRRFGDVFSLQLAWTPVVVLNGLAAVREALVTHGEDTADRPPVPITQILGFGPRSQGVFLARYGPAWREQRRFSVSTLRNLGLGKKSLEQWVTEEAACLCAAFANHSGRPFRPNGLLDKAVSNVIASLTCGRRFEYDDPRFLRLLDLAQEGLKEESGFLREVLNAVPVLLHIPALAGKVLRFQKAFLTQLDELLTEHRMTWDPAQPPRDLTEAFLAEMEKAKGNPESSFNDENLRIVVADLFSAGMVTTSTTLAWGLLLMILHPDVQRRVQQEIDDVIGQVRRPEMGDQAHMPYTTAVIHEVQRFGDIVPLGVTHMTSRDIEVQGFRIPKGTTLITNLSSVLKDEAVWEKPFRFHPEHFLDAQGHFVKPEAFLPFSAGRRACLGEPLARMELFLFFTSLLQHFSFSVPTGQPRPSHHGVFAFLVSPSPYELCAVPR

With CC1=C(C#N)C(C(F)(F)F)(C(F)(F)F)NC(c2ccco2)=N1 the AC50 [1] was 7.72 µM (active), the AC50 [2] was 10.1 µM (active) and the AC50 (INS1) was 4.65 µM (active). The AC50 [3] was > 70 µM (inactive).

In the case of COc1ccc(CSc2[nH]c(C)nc2[N+](=O)[O-])cc1[N+](=O)[O-], the AC50 [4] is reported as 0.02 µM (active).

In the case of CC(=O)N[C@H]1C[C@@H]1c1ccccc1, the EC50 [5] is reported as > 53 µM (inactive) and the IC50 [6] is reported as > 47.1 µM (inactive).

For Nc1ccc(N2CCN(c3ccc(F)cc3)CC2)cc1, the EC50 [7] was 40.1 µM (active), the AC50 [4] was 0.821 µM (active) and the IC50 [8] was 18.2 µM (active).

For CCn1c(=O)c(=O)[nH]c2cc(C(=O)NC(C)c3ccc(S(N)(=O)=O)cc3)ccc21 (stereo unspecified), the AC50 [4] was 0.407 µM (active).

With O=C(CSc1nnc(-c2ccc(F)cc2)c2ccccc12)Nc1ccccc1 the EC50 [9] was 104 µM (active).

For Cc1ccc(C2(C)CC(C)(C)N(C(=O)CSc3nnc(C)s3)c3ccccc32)cc1 (stereo unspecified), the EC50 [5] was > 53 µM (inactive) and the IC50 [6] was > 47.1 µM (inactive).

In the case of Nc1ccc(Sc2cnn(-c3ccccc3)c(=O)c2Cl)cc1, the AC50 (Cytochrome P450 2D6) is reported as 12.6 µM (inconclusive) and the EC50 [9] is reported as > 260 µM (inactive).

With O=C(Cn1cnc([N+](=O)[O-])n1)NCCc1ccccc1 the EC50 [5] was > 53 µM (inactive), the EC50 [10] was > 60 µM (not active) and the IC50 [6] was > 47.1 µM (inactive). The EC50 [11] was 0.537 µM (active).

In the case of CC1CCC(NC(=O)Cn2ncc3ccccc32)CC1 (stereo unspecified), the EC50 [12] is reported as > 120 µM (not active) and the EC50 (H4) is reported as > 120 µM (not active).

In the case of CN(C)CCNC=C(C(=O)Nc1ccc(Cl)cc1Cl)C(=O)Nc1ccc(Cl)cc1Cl, the CC50 (Vero) is reported as > 25 µM (active), the EC50 [13] is reported as 2.71 µM (active) and the IC50 [14] is reported as > 20 µM (inactive). The EC50 [15] was 17.2 µM (active), the AC50 [16] was 6.84 µM (active) and the EC50 [17] was 26.4 µM (active). For the same molecule, the EC50 (Streptokinase A) was > 150 µM (not active) and the EC50 (Streptococcus) was 6.32 µM (active).

With C/N=C1/S/C(=C\c2ccc(OCC(=O)OC)c(OC)c2)C(=O)N1C the IC50 (cells) was 4.45 µM (active) and the CC50 [18] was > 40 µM (active).

With O=C(CCC(=O)N1CCOc2ccccc21)NC1CCCCCC1 the EC50 [5] was > 53 µM (inactive) and the IC50 [6] was > 47.1 µM (inactive).

For Cc1ccc(CN2CCSc3ccc(C(=O)N4CCN(c5ncccn5)CC4)cc32)cc1, the EC50 [5] was > 53 µM (inactive) and the IC50 [6] was > 47.1 µM (inactive).
